In paper PMC9962512, “Synthesis and Anti-Angiogenic Activity of Novel c(RGDyK) Peptide-Based JH-VII-139-1 Conjugates” (Pharmaceutics, 2023):
Where two headings read alike, the source gives them in different places.

How the values were obtained:
[1] = tested on: zebrafish Tg(kdrl:gfp) embryos; assay: Zebrafish angiogenesis assay, intersegmental vessels (ISVs); type: in vivo; conditions: 10 μM, added 24 hpf, imaged 72 hpf
Method: The Tg(kdrl:gfp)^s843 [38] was used to measure angiogenesis. Zebrafish breeding was carried out according to the European Directive 2010/63 and the Recommended Guidelines for Zebrafish Husbandry Conditions.
Zebrafish Tg(kdrl:gfp)^s843 embryos were raised in E3 medium up to 24 hpf; then dechorinated and finally transferred to a 12-well plate (10 embryos per well). Each compound was dissolved in DMSO and then added in the wells at the following final concentrations: 10 μM JH-VII-139-1 and c(RGDyK), and 1.3 μM geo75, geo77, geo85, geo107. Treated embryos and control embryos (at the corresponding DMSO concentration) were kept at 28 °C and imaged at 72 hpf.
After anesthetizing embryos with 0.4% tricaine methanesulfonate (MS222), a fluorescent image was acquired using a Hamamatsu ORCA-Flash4.0LT digital camera. We used the total length of 8 intersegmental vessels (ISVs) per embryo and the width from each of the above ISVs was measured at three different points, i.e., the top, the middle, and the bottom point of each ISV, and then the average width was estimated. We measured the 8 ISVs that flank the end of the yolk extension. Length and widths were measured using the open-source software ImageJ 1.53a (http://imagej.nih.gov/ij (accessed on 30 May 2022)). A total of 30 embryos (4–7 per group) from independent experiments were measured. […]

[2] = Stability in Dulbecco's Modified Eagle Medium (+10% FBS); type: in vitro ADME; conditions: for half-life at 396 µg/mL: DMEM + 10% FBS, read-out: half-life t1/2
Method: Conjugates geo75, geo77, geo85 and geo107 (200 μg in 5 μL DMSO) were diluted in 0.5 mL DMEM (+10% fetal bovine serum) mixture and incubated at 37 °C. At predetermined time intervals, 50 μL of the mixture was removed and quenched with 150 μL water/acetonitrile/formic acid solution (100/100/0.1 volume ratio) and the sample was analyzed by LC-MS. Three independent experiments were carried out and the results are presented as the mean ± standard deviation.

[3] = Stability in human plasma; type: in vitro ADME; conditions: for half-life at 495 µg/mL: human, read-out: half-life t1/2
Method: First, 250 μg of (JH-VII-139-1)-c(RGDyK)-based conjugates were diluted in 5 μL DMSO and the mixture was added to 0.5 mL of human plasma. The mixtures were incubated at 37 °C. 50 μL of aliquot was removed at predetermined time points and quenched with 150 μL ice-cold acetonitrile (+0.1% formic acid). Then, the mixture was centrifuged at 10,000 rpm for 10 min. Then, 50 μL of supernatant was added to 50 μL of ultrapure water (+0.1% formic acid) and analyzed by LC-MS. Results are presented as the mean ± SD of three independent experiments.

[4] = tested on: angiogenesis in AMD animal model; set-up: method as in PMID 29478907; conditions: AMD animal model ref 27; cited from earlier work
[5] = tested on: SRPK1; set-up: method as in PMID 29478907; conditions: SRPK1 ref 27; cited from earlier work
[6] = MTT assay, summary over the cell panel; type: cell-based
Method: (§1) HeLa, MCF7, MDA-MB-231 and K562 cancer cell lines were provided by ATCC (American Type Culture Collection). Cells were incubated at 37 °C with 5% CO2. HeLa, MCF7 and MDA-MB-231 cells were maintained in DMEM, while K562 cells were maintained in RPMI medium, both supplemented with 10% (v/v) fetal bovine serum (FBS) and antibiotics/antimycotics.
(§2) HeLa, MCF7, MDA-MB-231 and K562 cells were seeded in 96-well plates (3 × 10^3 cells per well) and grown in medium supplemented with 10% FBS as monolayers at 37 °C in a 5% CO2 incubator. One day after seeding, cells were exposed to increasing concentrations of the inhibitors for 48 h. The viability of the cells was estimated by an (3-(4,5-imethylthiazol-2-yl)-2,5-diphenyltetrazolium bromide (MTT) metabolic assay as described previously, and the percentage growth inhibition (GI50, TGI, IC50) was calculated according to National Cancer Institute recommendations as referred to Leonidis et al.. Values shown represent the means ± SE of three independent experiments.

[7] = tested on: HeLa, MCF-7, MDA-MB-231 and K562 cancer cells; assay: MTT assay, summary over the cell panel; type: cell-based; conditions: HeLa, MCF-7, MDA-MB-231 and K562; 48 h; read-out: GI50 (cytostatic effect), range over compounds and cell lines
Method: as §1, §2

[8] = biological target: T1, human SRPK1 (Homo sapiens, UniProt Q96SB4); assay: In vitro kinase assay (GST-SRPK1, GST-LBRNt(62-92) substrate, radioactive); type: biochemical; conditions: 25 μM ATP; mean ± SD of three experiments; read-out: IC50 (nΜ) for SRPK1
T1 construct: made in house; host or cells: bacteria (pGEX-2T vector)
Method: The pGEX-2T bacterial expression vector (Amersham Biosciences GmbH, Freiburg, Germany) was used to construct plasmids that encode human SRPK1 and a fragment of the N-terminal domain of turkey LBR comprising amino acids 62–92 (LBRNt(62–92)). The GST-fusion proteins were produced in bacteria and purified using glutathione-Sepharose (Amersham Biosciences) according to the manufacturer’s instructions. Kinase assays were carried out in a total volume of 25 μL containing 0.5 μg GST-SRPK1, 1.5 μg GST-LBRNt(62–92) as substrate, 12 mM Hepes pH 7.5, 10 mM MgCl2, 25 μM ATP, and increasing concentrations of the inhibitors as indicated. In all assays, the final concentration of dimethyl sulfoxide (DMSO) was adjusted to 4%. Phosphorylated GST-LBRNt(62–92) was detected by autoradiography using Super RX (Fuji medical X-ray film,(Fujifilm Holdings Corporation, Tokyo, Japan)). Incorporated radioactivity was quantified by excising the radioactive bands from the SDS-PAGE gel and scintillation counting.

[9] = tested on: HeLa cells; assay: cells; type: cell-based; conditions: 48 h; for TGI: total growth inhibition
Method: as §1, §2

[10] = tested on: MCF7 cells; assay: cells; type: cell-based; conditions: for TGI: total growth inhibition
Method: as §1, §2

[11] = tested on: MDA-MB-231 cells; assay: cells; type: cell-based; conditions: for TGI: total growth inhibition
Method: as §1, §2

[12] = tested on: K562 cells; assay: cells; type: cell-based; conditions: for TGI: total growth inhibition
Method: as §1, §2

[13] = tested on: α5β1 integrins; set-up: method as in PMID 28074920; conditions: α5β1 ref 25; cited from earlier work
[14] = physchem; conditions: buffer, pH 5.2
Method: (§3) The mixture was then incubated at 37 °C, samples were collected at predetermined time points (0, 1, 2, 3, 4, 5, 24 and 48 h), and analyzed by LC-MS. Results are presented as the mean ± of SD after repeating the experiment three times.

[15] = buffer, pH 7.4
Method: as §3

[16] = physchem; conditions: buffer, pH 7.4
Method: as §3

[17] = DMEM with 10% fetal bovine serum, 37 °C

T1 sequence (Q96SB4 whole entry): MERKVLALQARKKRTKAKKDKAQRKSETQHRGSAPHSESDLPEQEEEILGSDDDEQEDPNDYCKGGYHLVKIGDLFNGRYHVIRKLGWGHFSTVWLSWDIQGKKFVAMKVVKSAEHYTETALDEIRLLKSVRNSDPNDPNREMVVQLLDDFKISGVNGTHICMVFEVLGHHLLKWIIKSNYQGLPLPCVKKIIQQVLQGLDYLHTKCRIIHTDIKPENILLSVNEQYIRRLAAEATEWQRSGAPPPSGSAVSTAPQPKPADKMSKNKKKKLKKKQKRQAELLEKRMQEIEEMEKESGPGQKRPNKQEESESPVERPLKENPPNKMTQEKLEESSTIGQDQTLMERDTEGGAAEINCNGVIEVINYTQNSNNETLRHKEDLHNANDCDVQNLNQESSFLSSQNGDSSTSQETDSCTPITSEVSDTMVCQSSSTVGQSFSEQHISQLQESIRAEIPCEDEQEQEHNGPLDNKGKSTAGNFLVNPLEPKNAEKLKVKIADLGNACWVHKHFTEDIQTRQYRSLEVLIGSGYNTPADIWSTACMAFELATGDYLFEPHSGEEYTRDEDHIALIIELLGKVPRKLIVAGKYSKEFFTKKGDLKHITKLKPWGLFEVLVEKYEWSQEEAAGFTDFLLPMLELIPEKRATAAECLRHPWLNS

IC50 [8]	GI50 [9]	IC50 [9]	GI50 ([11]; 48 h)	IC50 ([11]; 48 h)	GI50 ([12]; 48 h)	IC50 ([12]; 48 h)	IC50 [6]	SMILES	inhibition of total width of ISVs [1]	TGI ([9]; HeLa)	TGI ([10]; MCF7, 48 h)	TGI ([11]; MDA-MB-231, 48 h)	TGI ([12]; K562, 48 h)	GI50 ([10]; 48 h)	IC50 ([10]; 48 h)	half-life at 495 µg/mL ([3]; 37 °C)	half-life [14]	half-life t1/2 [15]	half-life at 396 µg/mL [2, 17]	half-life [16]	other results
0.032 ± 0.0005 µM								CCc1cc2c(cc1-c1cc[nH]n1)C(C)(C)c1[nH]c3cc(C#N)ccc3c1C2=O [JH-VII-139-1, 9-Ethyl-6,6-dimethyl-11-oxo-8-(1H-pyrazol-3-yl)-6,11-dihydro-5H-benzo[b]carbazole-3-carbonitrile]	non-significant trend	19 ± 0.2 μΜ	19 ± 0.3 μΜ	21 ± 0.4 μΜ	15 ± 0.5 μΜ								half-life at 396 µg/mL ([2]; bovine, DMEM with 10% fetal bovine serum (cell-free), 37 °C): > 48 h; half-life at 495 µg/mL ([3]; plasma, 37 °C): > 48 h; effect on angiogenesis [4]: blocks angiogenesis; IC50 [5]: 0.0011 µM; IC50 at 48 h ([6]; human, MDA-MB-231 and K562 cancer cells, HeLa, MCF-7, MDA-MB-231 and K562, 48 h, read-out: IC50 (cytotoxic effect), range over compounds and cell lines): 3 to 18 µM; GI50 [7]: 4 to 12 µM; GI50 ([9]; Homo sapiens, HeLa, 50% growth inhibition, read-out: GI50): 8 ± 0.2 µM; IC50 ([9]; Homo sapiens, HeLa, cytotoxic effect, read-out: IC50): 14 ± 0.8 µM; GI50 ([10]; Homo sapiens, MCF7, 48 h, 50% growth inhibition, read-out: GI50): 9 ± 0.2 µM; IC50 ([10]; Homo sapiens, MCF7, 48 h, cytotoxic effect, read-out: IC50): 8 ± 0.6 µM; GI50 ([11]; Homo sapiens, MDA-MB-231, 48 h, 50% growth inhibition, read-out: GI50): 11 ± 0.3 µM; IC50 ([11]; Homo sapiens, MDA-MB-231, 48 h, cytotoxic effect, read-out: IC50): 18 ± 0.5 µM; GI50 ([12]; Homo sapiens, K562, 48 h, 50% growth inhibition, read-out: GI50): 8 ± 0.5 µM; IC50 ([12]; Homo sapiens, K562, 48 h, cytotoxic effect, read-out: IC50): 13 ± 0.3 µM
0.035 ± 0.0011 µM							3 to 18 µM	CCc1cc2c(cc1-c1ccn(C(=O)OCCOCCOCCOC(=O)NCCCC[C@@H]3NC(=O)[C@@H](Cc4ccc(O)cc4)NC(=O)[C@H](CC(=O)O)NC(=O)CNC(=O)[C@H](CCCNC(=N)N)NC3=O)n1)C(C)(C)c1[nH]c3cc(C#N)ccc3c1C2=O [geo75]								0.183 h	> 48 h	24h 15min h min			time after which almost completely hydrolyzed ([2]; DMEM, 37 °C): 9 h; time after which almost completely hydrolyzed ([3]; 37 °C): 1 h
0.03 ± 0.0017 µM	5 ± 0.2 µM	9 ± 0.2 µM	8 ± 0.5 µM	10 ± 0.3 µM	12 ± 0.9 µM	17 ± 0.5 µM	3 to 18 µM	CCc1cc2c(cc1-c1ccn(C(=O)CCCC(=O)NCCCC[C@@H]3NC(=O)[C@@H](Cc4ccc(O)cc4)NC(=O)[C@H](CC(=O)O)NC(=O)CNC(=O)[C@H](CCCNC(=N)N)NC3=O)n1)C(C)(C)c1[nH]c3cc(C#N)ccc3c1C2=O [geo77]						4 ± 0.4 µM	3 ± 0.4 µM	0.167 to 0.833 h		1 h 44 min h min			
0.042 ± 0.0019 µM	> 100 µM	> 100 µM	> 100 µM	> 100 µM	> 100 µM	> 100 µM		CCc1cc2c(cc1-c1ccn(C(=O)NCCOCCOCCNC(=O)NCCCC[C@@H]3NC(=O)[C@@H](Cc4ccc(O)cc4)NC(=O)[C@H](CC(=O)O)NC(=O)CNC(=O)[C@H](CCCNC(=N)N)NC3=O)n1)C(C)(C)c1[nH]c3cc(C#N)ccc3c1C2=O [geo85]								> 48 h	> 48 h		> 48 h	> 48 h	hydrolysis ([2]; DMEM, after 24 h): 10%; metabolised at 24 h, 495 µg/mL ([3]; after 24 h, read-out: hydrolysis): 10%
								CCc1cc2c(cc1-c1ccn(C(=O)NCCOCCOCCNC(=O)N[C@@H](CCCCN)C(=O)NCCCC[C@@H]3NC(=O)[C@@H](Cc4ccc(O)cc4)NC(=O)[C@H](CC(=O)O)NC(=O)CNC(=O)[C@H](CCCNC(=N)N)NC3=O)n1)C(C)(C)c1[nH]c3cc(C#N)ccc3c1C2=O [geo107]								> 48 h	> 48 h		> 48 h	> 48 h	residual concentration (of initial concentration), lowest ([2]; cell media (DMEM), up to 48 h): ≥ 80%; residual concentration (of initial concentration), lowest ([3]; up to 48 h): ≥ 80%

SMILES	IC50 [8]	GI50 [9]	IC50 [9]	GI50 ([11]; 48 h)	IC50 ([11]; 48 h)	GI50 ([12]; 48 h)	IC50 ([12]; 48 h)	IC50 [6]	inhibition of total width of ISVs [1]	TGI ([9]; HeLa)	TGI ([10]; MCF7, 48 h)	TGI ([11]; MDA-MB-231, 48 h)	TGI ([12]; K562, 48 h)	GI50 ([10]; 48 h)	IC50 ([10]; 48 h)	half-life at 495 µg/mL ([3]; 37 °C)	half-life [14]	half-life t1/2 [15]	half-life at 396 µg/mL [2, 17]	half-life [16]	other results
N=C(N)NCCC[C@@H]1NC(=O)[C@H](CCCCN)NC(=O)[C@@H](Cc2ccc(O)cc2)NC(=O)[C@H](CC(=O)O)NC(=O)CNC1=O [c(RGDyK)]		79 ± 2.2 µM	[…]	[…]	[…]	[…]	[…]		non-significant trend	[…]	[…]	[…]	[…]	[…]	[…]						IC50 [13]: 0.236 ± 0.045 µM
